Values after ≈ are worked out from the molar mass of the structure shown. Active and inactive are the calls of the source. The calls are words filed in the database; no cut-off is given here.
Experiments:
A549 [1] = experiment: Cytotoxicity against human A549 cells after 24 hrs by MTT assay; assay type: functional, cell-based; conditions: A549, 24 h
[2] = Cytotoxicity against rat 5RP7 cells after 24 hrs by MTT assay; assay type: functional, cell-based; conditions: 5RP7, 24 h
Cholinesterase [3] = molecular target: T1, Cholinesterase (Homo sapiens, UniProt P06276); experiment: Inhibition of BuChE (unknown origin) using butyrylthiocholine iodide as substrate at 80 ug/ml by Ellman spectrophotometric method
T1 sequence (P06276 whole entry): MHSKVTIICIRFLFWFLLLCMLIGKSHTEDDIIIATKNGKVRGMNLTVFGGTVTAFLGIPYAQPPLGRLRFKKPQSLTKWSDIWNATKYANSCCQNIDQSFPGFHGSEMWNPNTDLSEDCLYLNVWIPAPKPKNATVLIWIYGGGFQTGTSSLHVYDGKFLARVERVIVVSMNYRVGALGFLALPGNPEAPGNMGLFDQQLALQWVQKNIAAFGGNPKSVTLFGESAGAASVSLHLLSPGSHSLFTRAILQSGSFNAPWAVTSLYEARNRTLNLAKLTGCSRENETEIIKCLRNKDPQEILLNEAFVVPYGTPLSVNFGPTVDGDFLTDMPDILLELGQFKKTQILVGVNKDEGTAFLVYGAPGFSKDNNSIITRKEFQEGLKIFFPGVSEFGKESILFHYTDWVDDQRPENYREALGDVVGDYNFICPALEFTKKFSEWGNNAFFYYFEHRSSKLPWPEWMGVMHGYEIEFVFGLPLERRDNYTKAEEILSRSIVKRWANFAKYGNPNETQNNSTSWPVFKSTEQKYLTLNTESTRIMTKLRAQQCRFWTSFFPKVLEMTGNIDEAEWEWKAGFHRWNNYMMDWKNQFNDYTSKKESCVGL

A549 [4] = experiment: Antiproliferative activity against human A549 cells assessed as inhibition of DNA synthesis after 24 hrs by BrdU incorporation based ELISA; assay type: functional, cell-based
C6 [5] = experiment: Cytotoxicity against rat C6 cells after 24 hrs by MTT assay; assay type: functional, cell-based; conditions: C6, 24 h
Cholinesterase [6] = molecular target: T1, Cholinesterase; experiment: Inhibition of BuChE (unknown origin) using butyrylthiocholine iodide as substrate by Ellman spectrophotometric method
[7] = Cytotoxicity against mouse NIH/3T3 cells after 24 hrs by MTT assay; assay type: cell-based; conditions: NIH3T3, 24 h
Acetylcholinesterase = Acetylcholinesterase (Electrophorus electricus, UniProt O42275); experiment: Inhibition of electric eel AChE using acetylthiocholine iodide as substrate at by Ellman spectrophotometric method
Chain of Acetylcholinesterase (O42275 whole entry): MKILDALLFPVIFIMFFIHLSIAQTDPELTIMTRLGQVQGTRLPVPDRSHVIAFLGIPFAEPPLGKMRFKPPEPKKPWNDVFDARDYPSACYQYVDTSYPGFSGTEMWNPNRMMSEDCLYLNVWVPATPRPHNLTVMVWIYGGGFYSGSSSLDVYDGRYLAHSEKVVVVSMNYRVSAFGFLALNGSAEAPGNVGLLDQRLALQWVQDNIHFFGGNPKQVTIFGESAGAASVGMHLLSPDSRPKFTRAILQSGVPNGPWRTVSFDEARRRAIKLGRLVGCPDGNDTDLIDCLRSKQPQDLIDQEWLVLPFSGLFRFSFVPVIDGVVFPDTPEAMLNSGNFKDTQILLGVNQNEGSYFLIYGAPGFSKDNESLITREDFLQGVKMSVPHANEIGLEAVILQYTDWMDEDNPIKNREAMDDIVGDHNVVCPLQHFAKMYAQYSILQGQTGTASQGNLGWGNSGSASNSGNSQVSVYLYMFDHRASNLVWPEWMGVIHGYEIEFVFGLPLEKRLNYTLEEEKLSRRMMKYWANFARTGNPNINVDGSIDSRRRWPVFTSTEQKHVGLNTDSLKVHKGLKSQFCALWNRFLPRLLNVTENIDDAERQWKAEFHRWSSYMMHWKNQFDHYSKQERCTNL

C6 [8] = experiment: Antiproliferative activity against rat C6 cells assessed as inhibition of DNA synthesis after 24 hrs by BrdU incorporation based ELISA; assay type: functional, cell-based
C6 [9] = experiment: Selectivity index, ratio of IC50 for mouse NIH/3T3 cells to IC50 for rat C6 cells; assay type: functional
A549 [10] = experiment: Selectivity index, ratio of IC50 for mouse NIH/3T3 cells to IC50 for human A549 cells; assay type: functional

Structure (SMILES) | IC50 (A549 [1]) | IC50 [2] | inhibition (Cholinesterase [3]) | Activity (A549 [4]) | IC50 (C6 [5]) | IC50 (Cholinesterase [6]) | IC50 [7] | IC50 (Acetylcholinesterase) | Activity (C6 [8]) | Ratio IC50 (C6 [9]) | Ratio IC50 (A549 [10])
COc1cc(-c2ccc(Nc3nc(-c4ccc([N+](=O)[O-])cc4)cs3)c(OC)c2)ccc1Nc1nc(-c2ccc([N+](=O)[O-])cc2)cs1 | 82.3 µg/mL (≈ 126 µM) | 5.83 µg/mL (≈ 8.93 µM) | 27.9% | Active | 33.3 µg/mL (≈ 51 µM) | > 123 µM | 147 µg/mL (≈ 225 µM) | 15.9 µM | inactive | – | –
COc1cc(-c2ccc(Nc3nc(-c4ccc(Cl)cc4)cs3)c(OC)c2)ccc1Nc1nc(-c2ccc(Cl)cc2)cs1 | 105 µg/mL (≈ 166 µM) | 207 µg/mL (≈ 327 µM) | 39.1% | – | 147 µg/mL (≈ 232 µM) | > 127 µM | 112 µg/mL (≈ 177 µM) | 42.7 µM | – | – | –
COc1cc(-c2ccc(Nc3nc(-c4ccc(Cl)cc4Cl)cs3)c(OC)c2)ccc1Nc1nc(-c2ccc(Cl)cc2Cl)cs1 | 133 µg/mL (≈ 190 µM) | > 500 µg/mL | 84.4% | – | 80 µg/mL (≈ 114 µM) | 47.6 µM | > 200 µg/mL | 8.37 µM | – | – | –
COc1cc(-c2ccc(Nc3nc(-c4ccccc4)cs3)c(OC)c2)ccc1Nc1nc(-c2ccccc2)cs1 | 103 µg/mL (≈ 184 µM) | 28 µg/mL (≈ 49.8 µM) | inactive | – | 49.3 µg/mL (≈ 87.6 µM) | – | 112 µg/mL (≈ 198 µM) | 16.6 µM | – | – | –
COc1ccc(-c2csc(Nc3ccc(-c4ccc(Nc5nc(-c6ccc(OC)cc6)cs5)c(OC)c4)cc3OC)n2)cc1 | 58.3 µg/mL (≈ 93.6 µM) | 13.3 µg/mL (≈ 21.4 µM) | 74.5% | Active | 28.7 µg/mL (≈ 46.1 µM) | 107 µM | 98.3 µg/mL (≈ 158 µM) | 12.4 µM | inactive | – | –
COc1cc(-c2ccc(Nc3nc(-c4ccc(Br)cc4)cs3)c(OC)c2)ccc1Nc1nc(-c2ccc(Br)cc2)cs1 | 37.3 µg/mL (≈ 51.8 µM) | 68.3 µg/mL (≈ 94.8 µM) | inactive | Active | 11.3 µg/mL (≈ 15.7 µM) | – | 132 µg/mL (≈ 183 µM) | 15.9 µM | inactive | 11.65 | 3.53
COc1cc(-c2ccc(NC(N)=S)c(OC)c2)ccc1NC(N)=S | 178 µg/mL (≈ 492 µM) | 25.3 µg/mL (≈ 69.9 µM) | 26.7% | – | 165 µg/mL (≈ 455 µM) | > 221 µM | 195 µg/mL (≈ 538 µM) | 57.7 µM | – | – | –
COc1cc(-c2ccc(Nc3nc(-c4cc(Cl)ccc4Cl)cs3)c(OC)c2)ccc1Nc1nc(-c2cc(Cl)ccc2Cl)cs1 | 102 µg/mL (≈ 145 µM) | 54.3 µg/mL (≈ 77.6 µM) | 36.2% | – | 38.3 µg/mL (≈ 54.7 µM) | > 114 µM | 162 µg/mL (≈ 231 µM) | 97.1 µM | – | – | –
COc1cc(-c2ccc(Nc3nc(-c4ccc(C)cc4)cs3)c(OC)c2)ccc1Nc1nc(-c2ccc(C)cc2)cs1 | 98.3 µg/mL (≈ 166 µM) | > 500 µg/mL | 40.9% | Active | 21 µg/mL (≈ 35.5 µM) | > 135 µM | 153 µg/mL (≈ 260 µM) | 45.8 µM | inactive | – | –
COc1ccc(OC)c(-c2csc(Nc3ccc(-c4ccc(Nc5nc(-c6cc(OC)ccc6OC)cs5)c(OC)c4)cc3OC)n2)c1 | 125 µg/mL (≈ 183 µM) | 12.3 µg/mL (≈ 18.1 µM) | 56.9% | – | 103 µg/mL (≈ 151 µM) | 58 µM | 170 µg/mL (≈ 249 µM) | 55.7 µM | – | – | –
COc1cc(-c2ccc(Nc3nc(-c4ccc(Cl)c(Cl)c4)cs3)c(OC)c2)ccc1Nc1nc(-c2ccc(Cl)c(Cl)c2)cs1 | 147 µg/mL (≈ 209 µM) | 207 µg/mL (≈ 295 µM) | 53.5% | – | 90 µg/mL (≈ 128 µM) | 110 µM | > 200 µg/mL | 16.3 µM | – | – | –
O=C1c2c(O)ccc(O)c2C(=O)c2c(NCCNCCO)ccc(NCCNCCO)c21 [MITOXANTRONE] | 15.7 µg/mL (≈ 35.3 µM) | 0.73 µg/mL (≈ 1.64 µM) | – | – | – | – | – | – | – | – | –

Reference: ChEMBL document CHEMBL3751820, “Synthesis and evaluation of bis-thiazole derivatives as new anticancer agents” (Eur J Med Chem, 2016)
